Assays:
[1] = tested on: Salmonella typhimurium TA98; assay: Reverse mutation test (Ames test), TA98; assay type: cell-based
Procedure: (§1) In order to examine gene mutagenicity of Compounds 3, 5 and 8, reverse mutation test using Salmonella typhimurium TA98 and TA100 (hereinafter referred to as Ames test) was conducted.
(§2) The test was conducted without addition of S9mix and with addition of S9mix. Dimethylsulfoxide (hereinafter referred to as DMSO) was used as a negative control. A positive control was 2-(2-furyl)-3-(5-nitro-2-furyl)acrylamide (hereinafter referred to as AF-2) in case S9mix was not added, and 2-aminoanthracene (hereinafter referred to as 2-AA) in case S9mix was added.
(§3) As a sample solution to be added to a test plate, each compound was dissolved in DMSO to prepare a solution at a concentration of 50 mg/mL, and further, each solution was diluted with DMSO to prepare a solution with 7 dosage (geometric ratio 3). As a sample solution for preparing a sample of positive control, when TA98 was used as a test strain without addition of S9mix, a solution of AF-2 (compound concentration: 1 μg/mL) in DMSO was prepared; when TA100 was used as a test strain without addition of S9mix, a solution of AF-2 (compound concentration: 0.1 μg/mL) in DMSO was prepared; when TA98 was used as a test strain with addition of S9mix, a solution of 2-AA (compound concentration: 5 μg/mL) in DMSO was prepared; and when TA100 was used as a test strain with addition of S9mix, a solution of 2-AA (compound concentration: 10 μg/mL) in DMSO was prepared.
(§4) After each sample solution to be examined and a test strain (TA98 or TA100) were mixed together so as to make the addition amount of each sample to be 0.1 mL/plate, the mixture was multilayered using soft agar on a medium of a test plate, and then incubated at 37° C. for 48 hours. Separately, after each sample solution to be examined, S9mix and a test strain were mixed together so as to make the addition amount of each sample to be 0.1 mL/plate, the mixture was multilayered using soft agar on a medium of a test plate, and then incubated at 37° C. for 48 hours. On the other hand, only DMSO was used as a sample solution to perform the same procedure as above for the negative control. […]

[2] = tested on: Salmonella typhimurium TA100; assay: Reverse mutation test (Ames test), TA100; assay type: cell-based
Procedure: as §1, §2, §3, §4

[3] = [^125I]-labeled compounds, normal mice; cited from earlier work
[4] = International Publication No. WO03/106439; cited from earlier work
[5] = Partition coefficient based on the octanol extraction method; assay type: physicochemical; conditions: octanol / 10 mmol/L phosphate buffer (pH 7.4); Table 6, Examples 20-21
Procedure: Partition coefficients based on the octanol extraction method (hereinafter referred to as log Poctanol) were measured, which are generally known as an indicator of permeability of compounds through the blood-brain barrier (hereinafter referred to as BBB).
A diethyl ether solution of Compound 1 prepared in Example 3 (Example 8), a diethyl ether solution of Compound 2 prepared in Example 6 (Example 9), and a diethyl ether solution of [^123I]-IMPY prepared in Reference Example 1 (Comparative Example 4) were each diluted with 10 mg/mL ascorbic acid-containing physiological saline solution, and adjusted to a radioactive concentration of 20-30 MBq/mL. To 2 mL of octanol, 10 μL each of the prepared sample solutions was added, 2 mL of 10 mmol/L phosphate buffer (pH 7.4) was added, followed by stirring for 30 seconds. After the mixture was centrifuged with a low-speed centrifuge (2000 rpm×60 min.), the octanol layer and the water layer were sampled each in an amount of 1 mL, and subjected to measurement of radioactivity count with an autowell gamma system (Type: ARC-301B, manufactured by Aloka). Using the obtained radioactivity count, log Poctanol was calculated in accordance with the equation (2).
A diethyl ether solution (Example 20) of Compound 4 prepared in Example 16, a diethyl ether solution (Example 21) of Compound 6 prepared in Example 19, and a diethyl ether solution (Comparative Example 7) of [^123I]-IMPY were each diluted with a 10 mg/mL ascorbic acid-containing physiological saline solution to adjust to a radioactive concentration of 20-30 MBq/mL. To 2 mL of octanol, 10 μL each of the prepared sample solution was added, and 2 mL of 10 mmol/L phosphate buffer (pH 7.4) was further added, followed by stirring for 30 seconds. After the mixture was centrifuged with a low-speed centrifuge (2000 rpm×60 min.), the octanol layer and the water layer were sampled each in an amount of 1 mL, and subjected to measurement of radioactivity count with an autowell gamma system (Type: ARC-301B, manufactured by Aloka). Using the obtained radioactivity count, logPoctanol was calculated in accordance with the equation (4).

[6] = Transferability into brain and clearance; assay type: in vivo, male Wistar rats; conditions: intravenous injection, rats, Table 7
Procedure: Using Compound 1 (Example 10) and Compound 2 (Example 11), a time course change of radioactive accumulation in brain of male Wistar rats (7-week old) was measured.
A diethyl ether solution of Compound 1 (Example 10) prepared in Example 3, a diethyl ether solution of Compound 2 (Example 11) prepared in Example 6 and a diethyl ether solution of [^123I]-IMPY (Comparative Example 5) prepared in Reference Example 1 were each diluted with 10 mg/mL ascorbic acid-containing physiological saline solution to adjust to a radioactive concentration of 8-12 MBq/mL. 0.05 mL each of the prepared sample solutions was injected under thiopental anesthesia into the tail vein of the rats. The rats were sacrificed by bleeding from abdominal artery, and brains were removed and subjected to measurement of mass of brains and further subjected to measurement of radioactivity (hereinafter referred to as A in this Example) with a single channel analyzer (detector type: SP-20 manufactured by OHYO KOKEN KOGYO Co., Ltd.) 2, 5, 30 and 60 minutes after the injection. Further, the radioactivity level of the rest of the whole body was measured in the same manner as above (hereinafter referred to as B in this Example). Using these measurement results, radioactive distribution per unit weight of brain (% ID/g) at the respective time points were calculated in accordance with the following formula (3).
Three animals were used for the experiment at the respective time points.
Using Compound 4 and Compound 6, a time course change of radioactive accumulation in brain of male Wistar rats (7-week old) was measured.
Compound 4 (Example 22), Compound 6 (Example 23) and a solution of [^123I]-IMPY (Comparative Example 8) prepared above in Reference Example 1 were each diluted with a 10 mg/mL ascorbic acid-containing physiological saline solution to prepare solutions (20-31 MBq/mL in radioactive concentration). 0.05 mL each of the prepared sample solutions was injected under thiopental anesthesia into the tail vein of the respective Wistar rat (7-week old). The rats were sacrificed by bleeding from abdominal artery, and brains were removed and subjected to measurement of mass of brains and further subjected to measurement of radioactivity (hereinafter referred to as A in this Example) with a single channel analyzer (detector type: SP-20 manufactured by OHYO KOKEN KOGYO Co., Ltd.) 2, 5, 30 and 60 minutes after the injection. Further, the radioactivity level of the rest of the whole body was measured in the same manner as above (hereinafter referred to as B in this Example). Using these measurement results, radioactive distribution per unit weight of brain (% ID/g) at the respective time points were calculated in accordance with the following formula (5).

[7] = biological target: T1, aggregated Aβ (Aβ1-42) injected into amygdaloid nucleus (Homo sapiens, UniProt P05067); assay: Confirmation of imaging of amyloid in brain (ex vivo autoradiogram, Aβ1-42); set-up: species or system male Wistar rat; conditions: brain slice 60 minutes after tail vein injection
T1 construct: Aβ1-42 (manufactured by Wako) was dissolved in phosphate buffer (pH 7.4); purchased Wako
Procedure: The following experiment was carried out in order to examine whether amyloid in brain can be imaged by the compound of the present invention.
(1) Aβ1-42 (manufactured by Wako) was dissolved in phosphate buffer (pH 7.4) and shaken at 37° C. for 72 hours, to obtain a 1 mg/mL suspension of aggregated Aβ (hereinafter referred to as amyloid suspension in the Examples).
(2) 2.5 μL (corresponding to […]) of the amyloid suspension was injected into an amygdaloid nucleus on one side of a male Wistar rat (7-week old). As a control, 2.5 μL of a phosphate buffered physiological saline solution (pH 7.4) was injected into an amygdaloid nucleus on the other side of the rat. The rats were examined 1 day after the injection of the amyloid suspension and the phosphate buffered physiological saline solution (pH 7.4).
(3) Compound 1 was dissolved in a 10 mg/mL ascorbic acid-containing physiological saline solution to obtain a sample solution (22 MBq/mL in radioactivity concentration in the sample solution). This solution was injected under thiopental anesthesia into the rat through the tail vein (dosage: 0.5 mL, dosed radioactivity: 11-13 MBq equivalent).
(4) Brain was removed 60 minutes after the injection to prepare a brain slice of 10 μm in thickness with a microtome (type: CM3050S, manufactured by LEICA). The brain slice was exposed to an imaging plate for 20 hours, and then image analysis was carried out by use of a Bio-imaging Analyzer (type: BAS-2500; manufactured by FUJIFILM Corporation).
(5) After the completion of the image analysis using the Bio-imaging Analyzer, […]
Thus, it was confirmed that amyloid was deposited on the slice (FIG. 6b).
The same procedures as in Example 12 were performed except using a solution of Compound 2 in a 10 mg/mL ascorbic acid as a sample solution (the radioactive concentration of the sample solution was 25 MBq/mL).
(1) Aβ1-42 (manufactured by Wako) was dissolved in phosphate buffer (pH 7.4) and shaken at 37° C. for 72 hours, to obtain 1 mg/mL of a suspension of aggregated Aβ (hereinafter referred to as amyloid suspension in the Examples).
(3) A sample solution (30 MBq/mL in radioactivity concentration, Example 24) in which Compound 4 was dissolved in a 10 mg/mL ascorbic acid-containing physiological saline solution and a sample solution (30 MBq/mL in radioactivity concentration, Example 25) in which Compound 6 was dissolved in a 10 mg/mL ascorbic acid-containing physiological saline solution were prepared. This solution was injected under thiopental anesthesia into the rat through the tail vein (dosage: 0.5 mL, dosed radioactivity: 11-15 MBq equivalent).
Thus, it was confirmed that amyloid was deposited on the slice (FIG. 12 and FIG. 13).

[8] = biological target: T2, aggregated Aβ (Aβ1-42) amyloid (Homo sapiens, UniProt P05067); assay: In vitro binding test: inhibition of [^125I]3′-I-BTA-0 binding to amyloid; conditions: [^125I]3′-I-BTA-0 400 pmol/L, amyloid 1 μmol/L, 22° C., 3 hours
T2 construct: Aβ1-42 (manufactured by Wako) was dissolved in phosphate buffer (pH 7.4); purchased Wako
Procedure: Affinity of the present compounds with amyloid was examined by the following in vitro binding tests.
The measured radioactivity level was defined as the background radioactivity level, and used in the calculation of the inhibition ratio (hereinafter referred to as BG).
(9) Using the radioactivity levels measured above in (7) and (8), the inhibition ratio was determined by the following formula (1).
A graph in which values converted by probit transformation from the obtained inhibition ratios were plotted relative to logarithms of concentrations of compounds for evaluation was prepared to obtain an approximate straight line by the least square method.

[9] = TA98, without addition of S9mix
[10] = TA100, without addition of S9mix

T1 sequence (P05067 672-713): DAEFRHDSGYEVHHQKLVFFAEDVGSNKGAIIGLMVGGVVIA
T2 sequence (P05067 672-713): as above

Compound | Mutagenicity ([1]; TA98, with addition of S9mix) | Mutagenicity [1, 9] | Mutagenicity ([2]; TA100, with addition of S9mix) | Mutagenicity [2, 10] | Clearance from normal tissues [3] | other results
CCC[CH2][Sn]([CH2]CCC)([CH2]CCC)[c]1ccc2nc(-c3ccc(OCCO)cc3)cn2c1 [Compound 9, 6-tributylstannyl-2-[4′-(2″-hydroxyethoxy)phenyl]imidazo[1,2-a]pyridine] | Negative | Negative | Negative | Negative |  | 
CN(C)c1ccc(/C=C/c2ccc(I)cc2)cc1 [m-I-SB, (E)-4-dimethylamino-4′-iodostilbene] |  |  |  |  | insufficient in clearance from normal tissues | 
CN(C)c1ccc(-c2nc3ccc(I)cc3s2)cc1 [TZDM, 6-iodo-2-[4′-(N,N-dimethylamino)phenyl]benzothiazole] |  |  |  |  | insufficient in clearance from normal tissues | 
CN(C)c1ccc(-c2nc3ccc(I)cc3o2)cc1 [IBOX, 6-iodo-2-[4′-(N,N-dimethylamino)phenyl]benzoxazole] |  |  |  |  | insufficient in clearance from normal tissues | 
CC(=C(C#N)C#N)c1ccc2cc(N(C)CCF)ccc2c1 [FDDNP, 2-(1-{6-[(2-fluoroethyl)(methyl)amino]-2-naphthyl}ethylidene)malononitrile] |  |  |  |  |  | Reverse mutation test result [4]: positive
2-[3′-(2″-hydroxyethoxy)phenyl]-6-[^123I]iodoimidazo[1,2-a]pyridine [Compound 4] |  |  |  |  |  | logPoctanol value [5]: 2.5; Radioactive distribution per unit weight of brain ([6]; After 2 min.): 0.56 % ID/g; Radioactive distribution per unit weight of brain ([6]; After 5 min.): 0.28 % ID/g; Radioactive distribution per unit weight of brain ([6]; After 30 min.): 0.04 % ID/g; Radioactive distribution per unit weight of brain ([6]; After 60 min.): 0.01 % ID/g; Accumulation of radioactivity in amygdaloid nucleus on the amyloid-injected side [7]: marked accumulation of radioactivity
CN(C)c1ccc(-c2cn3cc(I)ccc3n2)cc1 [IMPY, 6-iodo-2-[4′-(N,N-dimethylamino)phenyl]imidazo[1,2-a]pyridine] |  |  |  |  |  | Reverse mutation test result [4]: positive
OCCOc1cccc(-c2cn3cc(I)ccc3n2)c1 [Compound 5, 2-[3′-(2″-hydroxyethoxy)phenyl]-6-iodoimidazo[1,2-a]pyridine] | Negative | Negative | Negative | Negative |  | 
Nc1c(/N=N/c2ccc(-c3ccc(/N=N/c4cc(S(=O)(=O)O)c5ccccc5c4N)cc3)cc2)cc(S(=O)(=O)O)c2ccccc12 [Congo Red, reference compound] |  |  |  |  |  | IC50 [8]: > 1 µM
CCOc1ccc(-c2cn3cc(I)ccc3n2)cc1 [Compound 8, 2-(4′-ethoxyphenyl)-6-iodoimidazo[1,2-a]pyridine] | Negative | Negative | Negative | Negative |  | 

Reference: patent publication US20100249419A1, “UTILIZATION OF NOVEL COMPOUNDS WITH AMYLOID AFFINITY AND METHOD OF PRODUCING THE SAME” (NIHON MEDI-PHYSICS CO., LTD., priority 2007, published 2010)
